From paper PMC4591261, “Design, Synthesis and Evaluation of 2,5-Diketopiperazines as Inhibitors of the MDM2-p53 Interaction” (PLoS ONE, 2015)
Values joined by “and” are separate entries in the source; they are usually repeats but may differ in a detail not shown here. Equal entries are not always repeated.

Experiments:
GST-MDM2 (1 – 188) = GST-MDM2 (1 – 188) (Homo sapiens, UniProt Q00987); test: Fluorescence polarisation (FP) assay, displacement of Texas Red labeled wild-type p53 peptide from MDM2; format: binding; conditions: for activity in the FP-assay (in words): tested concentrations up to 100 μM; for IC50: 1 μM GST-MDM2 (1-188), 15 nM Texas Red labeled wild-type p53 peptide, 1 h at r.t., 95% CI
Description: To evaluate the 2,5-DKPs as potential MDM2-p53 inhibitors, the same FP-assay was used as for the type III inhibitors.
The FP assay was performed in black 384-well microtiter plates at a final volume of 20 μL per well. […] Two to seven independent experiments of normalized data were combined into a data set, and then fit using a non-linear regression in GraphPad Prism with the formula log(inhibitor) vs. response – Variable slope (four parameters). Additionally the residuals of the curve fit were plotted to determine the fit of the theoretical curve. IC50 and 95% confidence intervals (CI) were determined from these graphs.

MDM2 [1] = biological target: T1, MDM2 (Homo sapiens, UniProt Q00987); test: Surface plasmon resonance (SPR) binding to biotinylated MDM2; conditions: 1:1 interaction model, 20 °C; for Rmax (RU): SPR
Description: To confirm binding to the target, surface plasmon resonance (SPR) was used to study interactions of 52RR and 52RS with MDM2 [41, 42].
MDM2 was minimally biotinylated by reaction with EZ-Link Sulfo-NHS-LC-LC-Biotin (Thermo Scientific). The biotin reagent was added to the protein at a 0.5:1 molar ratio, and the reaction was incubated on ice for 3-4 hours. Unconjugated biotin was removed by processing the samples through two Zeba Spin Desalting Columns (Thermo Scientific) that had been equilibrated with storage buffer (20 mM Bis-Tris pH 6.5, 200 mM NaCl, 20 mM dithiothreitol, 20% glycerol). Bovine serum albumin (BSA) was added to the reaction at a final concentration of 0.1 mg/mL immediately prior to processing through the spin columns to improve recovery.^2 The biotinylated protein was aliquotted, flash-frozen and stored at -80° C for use in subsequent binding experiments.
SPR experiments were conducted at 20 °C using a SensiQ Pioneer optical biosensor (SensiQ Technologies). Neutravidin (Thermo Scientific) was covalently immobilized on a polysaccharide hydrogel-coated gold surface (COOH5 chip; SensiQ Technologies) using routine amine coupling chemistry in immobilization buffer (10 mM HEPES pH 7.4, 150 mM NaCl, 0.005% Tween20). Carboxyl groups on the hydrogel were activated with N-ethyl-N´-(3-dimethylaminopropyl) carbodiimide (EDC) and N-hydroxysuccinimide (NHS), and neutravidin was injected in 10 mM sodium acetate pH 5.0 until immobilization levels of ~3000-3400 RU were achieved. Remaining active sites were blocked by reaction with ethanolamine. The instrument was primed with binding buffer (20 mM Tris pH 8.0, 100 mM NaCl, 5 mM dithiothreitol, 0.005% Tween20, 5% glycerol, 5% DMSO), and biotinylated MDM2 was injected until ~1070 RU of protein was captured. Unoccupied biotin-binding sites of neutravidin on both the reference and protein surfaces were blocked with amine-PEG2-biotin (Thermo Scientific) to minimize potential non-specific binding by the compounds.^3
The data were processed, double-referenced, solvent corrected and analyzed^4 using the software package Qdat (version 2.5.5.12 , BioLogic Software). The equilibrium dissociation constants (KD) were determined by fitting the data to a 1:1 (Langmuir) interaction model.

MDM2 [2] = biological target: T1, MDM2; test: WaterLOGSY NMR binding experiment; conditions: compound 200 µM, MDM2 protein 5 µM, 298 K
Description: All NMR experiments were performed at 298 K (25 °C) using a Bruker Avance 600 MHz spectrometer equipped with TCI cryogenic gradient probe. Compounds (20 mM stock solution in DMSO-D6) were added to buffer (25mM HEPES, pH7.2, 150 mM NaCl, 2mM TCEP) or buffer containing MDM2 protein (5 µM) to give final compound concentration of 200 µM. One-dimensional (1D) ^1H- and WaterLOGSY (water-ligand observed via gradient spectroscopy)^8 NMR spectra were recorded for compounds, protein, and compounds plus protein, respectively. NMR spectra were processed using Bruker Topspin software.

T1 sequence (Q00987 whole entry): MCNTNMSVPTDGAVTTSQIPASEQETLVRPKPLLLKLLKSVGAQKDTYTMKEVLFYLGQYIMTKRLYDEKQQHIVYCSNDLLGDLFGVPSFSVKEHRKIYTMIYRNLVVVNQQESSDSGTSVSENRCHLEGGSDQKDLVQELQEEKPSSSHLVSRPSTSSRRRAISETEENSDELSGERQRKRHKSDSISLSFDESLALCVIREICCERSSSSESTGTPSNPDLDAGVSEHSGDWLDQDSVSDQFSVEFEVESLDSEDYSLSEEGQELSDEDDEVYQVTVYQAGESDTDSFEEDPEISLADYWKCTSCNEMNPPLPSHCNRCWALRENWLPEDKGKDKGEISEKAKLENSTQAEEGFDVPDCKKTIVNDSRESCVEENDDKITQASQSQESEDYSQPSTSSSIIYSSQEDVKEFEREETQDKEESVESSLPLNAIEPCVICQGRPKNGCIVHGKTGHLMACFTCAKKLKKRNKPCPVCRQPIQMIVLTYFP
Chain of GST-MDM2 (1 – 188) (Q00987 1-188): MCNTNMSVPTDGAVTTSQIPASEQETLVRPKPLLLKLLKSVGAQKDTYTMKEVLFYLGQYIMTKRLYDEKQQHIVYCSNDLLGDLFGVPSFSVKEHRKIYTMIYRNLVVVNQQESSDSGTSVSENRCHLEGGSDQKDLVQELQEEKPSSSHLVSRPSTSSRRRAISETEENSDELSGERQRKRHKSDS

| SMILES | activity in the FP-assay (in words) (GST-MDM2 (1 – 188)) | ka (M^-1s^-1) (MDM2 [1]; SPR kinetic analysis) | kd (s^-1) (MDM2 [1]; SPR kinetic analysis) | Rmax (RU) (MDM2 [1]) | IC50 (GST-MDM2 (1 – 188)) | binding to MDM2 by WaterLOGSY (in words) (MDM2 [2]) |
| --- | --- | --- | --- | --- | --- | --- |
| CC(C)(C)OC(=O)CN1C(=O)[C@@H](c2ccc(Cl)cc2)N(c2ccc(Cl)cc2)C(=O)[C@H]1Cc1ccccc1 [44RR, (3R,6R)-3-Benzyl-1,6-(di-4-chlorophenyl)-4-(tert-butoxy-carbonyl-methyl)-piperazine-2,5-dione] | inactive | – | – | – | – | – |
| CC(C)(C)OC(=O)CN1C(=O)[C@H](c2ccc(Cl)cc2)N(c2ccc(Cl)cc2)C(=O)[C@H]1Cc1ccccc1 [44RS, (3R,6S)-3-Benzyl-1,6-(di-4-chlorophenyl)-4-(tert-butoxy-carbonyl-methyl)-piperazine-2,5-dione] | inactive | – | – | – | – | – |
| COc1ccc(C2=N[C@@H](c3ccc(Cl)cc3)[C@@H](c3ccc(Cl)cc3)N2C(=O)N2CCNC(=O)C2)c(OC(C)C)c1 [Nutlin-3a] | – | 9.10 (± 0.01) x 10^5 M^-1s^-1 | 2.80 (± 0.01) x 10^-2 s^-1 | 28.4 (± 0.1) RU | – | – |
| O=C(O)CN1C(=O)[C@@H](c2ccc(Cl)cc2)N(c2ccc(Cl)cc2)C(=O)[C@H]1Cc1ccccc1 [52RR, (3R,6R)-3-Benzyl-1,6-(di-4-chlorophenyl)-4-(carboxy-methyl)-piperazine-2,5-dione] | – | – | – | 16.6 (± 0.2) RU | 31.4 µM and 31 µM | confirmed binding |
| O=C(O)CN1C(=O)[C@H](c2ccc(Cl)cc2)N(c2ccc(Cl)cc2)C(=O)[C@H]1Cc1ccccc1 [52RS, (3R,6S)-3-Benzyl-1,6-(di-4-chlorophenyl)-4-(carboxy-methyl)-piperazine-2,5-dione] | – | – | – | 16.8 (± 0.2) RU | 28 µM | confirmed binding |
